# Test results from patent US5681836A, “Methanesulfonate salts of antipsychotic benzofuran derivatives” (Merck, Sharp & Dohme, Ltd., priority 1995, dated 1997).
# Counter-ions that a name gives are not always drawn.
# Biological target: T1, human dopamine D4 receptor subtype (Homo sapiens, UniProt P21917)
# T1 sequence (P21917 1-419): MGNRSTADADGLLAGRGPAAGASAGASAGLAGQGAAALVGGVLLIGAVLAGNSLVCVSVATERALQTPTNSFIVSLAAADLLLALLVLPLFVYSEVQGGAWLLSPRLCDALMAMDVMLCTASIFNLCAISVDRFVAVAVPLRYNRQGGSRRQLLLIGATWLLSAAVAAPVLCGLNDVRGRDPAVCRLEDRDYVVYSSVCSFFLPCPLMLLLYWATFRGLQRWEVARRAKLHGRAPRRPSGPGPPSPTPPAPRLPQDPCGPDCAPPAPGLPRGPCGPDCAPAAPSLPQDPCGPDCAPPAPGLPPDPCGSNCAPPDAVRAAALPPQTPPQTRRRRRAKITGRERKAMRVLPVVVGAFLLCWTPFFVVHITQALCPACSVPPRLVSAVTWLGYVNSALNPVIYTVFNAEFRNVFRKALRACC
# Experiment: [3H]-Spiperone binding (displacement) studies, human dopamine D4 receptor subtype expressed in clonal cell lines
# Details: 0.2 nM [3H]-spiperone for displacement; 60 min, room temperature (22° C.), pH 7.4; membranes of clonal cell lines; read-out: Ki value for displacement of [3H]-spiperone from the human dopamine D4 receptor subtype
# Method: Moreover, these salts display a selective affinity for the D4 subtype relative to the D2 subtype.
# Clonal cell lines expressing the human dopamine D4 receptor subtype were harvested in PBS and then lysed in 10 mM Tris-HCl pH 7.4 buffer containing 5 mM MgSO4 for 20 min on ice. Membranes were centrifuged at 50,000 g for 15 min at 4° C. and the resulting pellets resuspended in assay buffer (50 mM Tris-HCl pH 7.4 containing 5 mM EDTA, 1.5 mM CaCl2, 5 mM MgCl2, 5 mM KCl, 120 mM NaCl, and 0.1% ascorbic acid) at 20 mg/ml wet weight. Incubations were carried out for 60 min at room temperature (22° C.) in the presence of 0.05-2 nM [^3 H]-spiperone or 0.2 nM for displacement studies and were initiated by addition of 20-100 μg protein in a final assay volume of 0.5 ml. The incubation was terminated by rapid filtration over GF/B filters presoaked in 0.3% PEI and washed with 10 ml ice-cold 50 mM Tris-HCl, pH 7.4. Specific binding was determined by 10 μM apomorphine and radioactivity determined by counting in a LKB beta counter. Binding parameters were determined by non-linear least squares regression analysis, from which the inhibition constant Ki could be calculated for each test compound.
smiles,measurement,value
"C1=C(/C=C/c2ccccc2)CCN(Cc2coc3ccccc23)C1 [Example 1, (E)-3-[4-(2-Phenylethenyl)-1,2,3,6-tetrahydropyridin-1-yl]methylbenzo[b]furan methanesulfonate salt]",Ki,< 1500 nM
